In patent US20050287169A1, “Methods of use of genes of pyridoxal 5'-phosphate biosynthesis in Bacillus subtilis: avirulent strains for vaccines, and methods for identification of antibacterial agents” (priority 2003, published 2005):

Experiments:
[1] = tested on: B. subtilis strain BB2253 (ΔpdxS); experiment: Growth of B. subtilis pdxS (yaaD) null mutant BB2253 with supplements; format: cell-based, Bacillus subtilis
Experimental: (§1) Bacterial strains, plasmids and culture media. B. subtilis strains were grown at 37° C. in TSS minimal medium with 0.5% glucose as the carbon source and 0.2% glutamate or NH4Cl as nitrogen source, in LB broth [Miller, 1972], or in DS nutrient broth medium [Fouet, 1990]. The same media with addition of agar were used for growth of bacteria on plates. LB broth or LB agar was used for growth of Escherichia coli strains. The following antibiotic concentrations were used as appropriate: chloramphenicol, 2.5 μg/ml; neomycin, 2.5-5 μg/ml; phleomycin, 0.25 μg/ml; spectinomycin, 50 μg/ml; or a combination of erythromycin, 0.5 μg/ml, and lincomycin, 12.5 μg/ml, for B. subtilis strains; ampicillin, 50-100 μg/ml; kanamycin, 25 μg/ml; spectinomycin, 50 μg/ml; or chloramphenicol, 10 μg/ml, for E. coli strains.
Construction of yaaD and yaaE null mutants. A deletion mutation within gene yaaD was created by cutting out the 606-bp fragment starting at the AatII site of pBB1181 (FIG. 2) and religating the remaining fragment after filling in its ends (the deletion endpoint, as determined by sequencing, was determined to be beyond the HindIII site, designed for this construct). In the resulting plasmid, pBB1185 (FIG. 2), the deletion was found not to alter the reading frame ofyaaD. pBB1218, a truncated version of pBB1185 (FIG. 2), was introduced by a single-crossover, homologous recombination event into the chromosome of strain SMY, selecting transformants for neomycin resistance. […] After growth of cells of the […] Pdx^− strain in the absence of neomycin, a Neos Pdx^− derivative was isolated. In this strain it was observed that the integrated pBB1218 had been excised from the chromosome and lost. Replacement of the wild-type yaaD gene by the ΔyaaD allele in strain BB2253 and excision of pBB1218 was confirmed by sizing PCR fragments generated from the yaaD locus and by probing for the loss of vector sequences.
Poor ability to utilize PN has been observed for uncharacterized B. subtilis mutants that appeared to require B6 vitamers for growth [Pflug, 1978]. B. subtilis cells apparently lack the pdxH-like gene and the corresponding pyridoxine 5′-phosphate oxidase activity [Pflug, 1983] required for conversion of pyridoxine to PLP.

[2] = tested on: B. subtilis pdxT mutant (strains BB2256, BB2290); experiment: Growth of B. subtilis pdxT (yaaE) null mutant with supplements; format: cell-based, Bacillus subtilis
Experimental: as §1
A deletion-insertion mutation within the yaaE gene was constructed by replacing a 135-bp SphI-EcoRI fragment of pBB1213 (FIG. 2) with a 1.4-kb SphI-EcoRI ble cassette determining resistance to phleomycin, excised from pJPM136 [Belitsky, 1998]. The orientation of the ble gene in the resulting plasmid pBB1217 (ΔyaaE::ble; FIG. 2) coincided with that of the yaaE gene. Plasmid pBB1217 was introduced into B. subtilis SMY, and Phlr NeoS transformants arising from double crossover homologous recombination events were selected. Replacement of the chromosomal yaaE gene by the ΔyaaE::ble allele in strain BB2256 was confirmed by comparing sizes of PCR fragments from each of the wild-type and the mutant yaaE chromosomal loci.

[3] = tested on: G. stearothermophilus PdxT-His6 protein
[4] = tested on: Bacillus circulans pdxT mutant; details: addition of pyridoxine; cited from earlier work
[5] = tested on: L. monocytogenes strain BL1 (ΔpdxST::spc); experiment: Growth of Listeria monocytogenes ΔpdxST::spc mutant BL1 with B6 vitamers; format: cell-based
Experimental: The resulting plasmid, pBB1212, was introduced into E. coli strain DW1030 containing conjugative plasmid pRK231.7, a broad host range plasmid of the IncP incompatibility group. pBB1212 was transferred from strain DW1030 (pBB1212) into L. monocytogenes cells by conjugation [Trieu-Cuot, 1987] at the temperature (30°) permissive for replication of pBB1212. The ΔpdxST::spc mutants, formed due to allelic exchange resulting from pBB1212 plasmid integration into the chromosome at the non-permissive temperature (41°) and excision at the permissive temperature, were obtained by screening colonies that lost the plasmid marker (chloramphenicol-resistance) and had retained resistance to spectinomycin. Replacement of the chromosomal pdxST locus by the ΔpdxST::spc allele in strain BL1 was confirmed by comparing the sizes of PCR fragments obtained by use of the wild-type and mutant pdxST chromosomal loci as templates.
These traits of the L. monocytogenes mutant are similar to those observed herein with the corresponding B. subtilis mutant.

[6] = tested on: B. subtilis strain BB2267 (ΔpdxS ΔpdxZ::spc); experiment: Viability and growth of double pdxS pdxZ null mutant BB2267 with PLP precursors; format: cell-based, Bacillus subtilis; details: for Viability of double mutant pdxS pdxZ (BB2267): DS nutrient broth or glucose-ammonium TSS medium
Text: Double pdxS pdxZ and pdxT pdxZ null mutants, defective both in de novo and salvage pathways of PLP synthesis, were obtained by introducing the pdxZ mutation into the chromosome of the pdxS or pdxT mutant cells by transformation.
Viability of cells of strain BB2295 carrying both pdxS and pdxZ mutations was also obtained in the absence of exogenous pyridoxal in the presence of xylose, by conditionally restoring the de novo pathway of PLP synthesis with a xylose-inducible form of the pdxS gene at an ectopic location, i.e., located elsewhere on the chromosome. These and similarly constructed conditional lethal strains can be used for vaccine development, to overcome possible lethality to the bacteria during culture of cells carrying double pdxS and pdxZ or double pdxT and pdxZ mutations.

pdxS-lacZ fusion = experiment: Expression of pdxS-lacZ fusion (β-galactosidase activity); format: cell-based, Bacillus subtilis; details: for β-Galactosidase activity: NH4Cl 10 mM, PL 100 μM, glucose-minimal medium
Text: Construction of transcriptional pdxS-lacZ (yaaD-lacZ) and pdxT-lacZ (yaaE-lacZ) fusions. The 1.35-kb BamHI-EcoRI fragment containing the entire intragenic region between dacA and pdxS, the entire pdxS gene, and the 5′-end of the pdxT gene (FIG. 2), was cut out from the PCR product generated using primers oBB120 and oBB121 and was cloned between the corresponding sites of pHK23 to construct pBB1254 (pdxST-lacZ; FIG. 2). Plasmid pHK23 containing an erythromycin resistance gene was derived from pLG103 [Belitsky et al., 2002, the entire contents of which are hereby incorporated by reference herein]. To construct plasmid pBB1259 with apdxS-lacZ fusion (FIG. 2), a 0.50-kb HindIII-EcoRI fragment containing the 3′-end of the pdxS gene and the 5′-end of thepdxT gene, was cut out of pBB1254, and the plasmid was blunt-ended and religated. To construct plasmid pBB1262 with a pdxT-lacZ fusion (FIG. 2), a 0.43-kb BamHI-BseRI fragment, containing the pdxS promoter and the 5′-part of the pdxS gene, was cut out of pBB1254, and the plasmid was blunt-ended and religated. Strains BB2277, 2279, and 2285 carrying thepdx-lacZ transcriptional fusions integrated at the amyE locus were isolated after transforming strain SMY with pBB1254, 1259, and 1262, respectively, selecting for resistance to erythromycin and screening for loss both of α-amylase production (Amy) and vector sequences as indications of a double crossover, homologous recombination event. The Amy phenotype was assayed using colonies grown overnight on Tryptose Blood Agar Base (Difco)-0.2% starch plates [Fouet, 1990].
Activity of β-galactosidase was determined as described previously [Belitsky, 1995]. Specific activities are expressed in Miller units (1000×OD420/min·ml·OD600) [Miller, 1972].
ApdxS-lacZ transcriptional fusion (plasmid pBB1259; FIG. 2) was constructed as described in Materials and Methods herein, and was integrated at the ectopic amyE locus of the B. subtilis chromosome (strain BB2279).
No effect of addition of excess pyridoxal (up to 1 mM) was observed on expression or on growth rate. Further, a moderate activation of expression (about 3-4-fold) was observed as a result of B6 limitation, for example, by growth of apdxT mutant in LB broth. This effect was not observed or was much less pronounced for the pdxT mutant using LB broth supplemented with excess PL or NH4Cl (FIG. 6), or in a wild type strain. Further, a 2-3-fold decrease in β-galactosidase activity was observed inpdxT mutant cells grown in TSS-glucose mediume with limiting concentrations of ammonium salts, and this decrease in pdxS-lacZ expression was prevented by the presence of PL (Table 5).

[7] = tested on: B. subtilis strain BB2279 (wild-type); experiment: Growth rate of wild-type B. subtilis strain BB2279 carrying pdxS-lacZ; format: cell-based, Bacillus subtilis
Experimental: as §1
No effect of addition of excess pyridoxal (up to 1 mM) was observed on expression or on growth rate. Further, a moderate activation of expression (about 3-4-fold) was observed as a result of B6 limitation, for example, by growth of apdxT mutant in LB broth. This effect was not observed or was much less pronounced for the pdxT mutant using LB broth supplemented with excess PL or NH4Cl (FIG. 6), or in a wild type strain. […]

[8] = biological target: T1, wild-type B. subtilis PdxS protein (Bacillus subtilis, UniProt P37527 2-294); experiment: co-purification on a Ni2+-affinity column from E. coli co-expressing both proteins (0.5 M NaCl, 0.4 M imidazole), SDS-PAGE
T1 construct: Co-expressed with PdxT-His6 in E. coli; also called YaaD; unmodified PdxS
T1 sequence (looked up): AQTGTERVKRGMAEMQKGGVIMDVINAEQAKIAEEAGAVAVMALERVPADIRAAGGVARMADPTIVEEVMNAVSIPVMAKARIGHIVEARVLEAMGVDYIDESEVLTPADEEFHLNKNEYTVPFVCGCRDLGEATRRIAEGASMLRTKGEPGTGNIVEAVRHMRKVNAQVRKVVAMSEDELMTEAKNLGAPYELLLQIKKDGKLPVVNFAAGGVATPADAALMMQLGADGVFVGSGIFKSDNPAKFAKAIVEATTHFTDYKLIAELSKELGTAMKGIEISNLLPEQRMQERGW
Experimental: pBAD derivatives were introduced into E. coli LMG194 (ara⁻) [Guzman, 1995] cells by transformation. The PdxS and/or PdxT proteins were induced in L-broth cultures (A₆₀₀=0.25−0.4) by addition of 0.2% L-arabinose and incubation for four hours. Cells were pelleted, were washed in 50 mM tris-Cl (pH 8.0)-5% glycerol and were disrupted by sonication in modified Novagen binding buffer (20 mM tris-Cl (pH 7.9)-500 mM NaCl-5 mM imidazole-5% glycerol) plus 1 mM phenylmethylsulfonyl fluoride and 0.1% Nonidet P-40. The sonicate was clarified by low speed centrifugation, and the supernatant was purified using a 2 ml Ni²⁺-column (Novagen) as described by the manufacturer. Buffers containing increasing concentrations of imidazole, from 30 mM to 1 M, were initially used for elution, and 485 mM and 385 mM imidazole were found suitable for elution of PdxS and PdxT proteins, respectively.
E. coli strains overproducing each of the wild-type version of the B. subtilis PdxS protein and the His₆-tagged version of PdxT were constructed, and were used for purification of the PdxT-His₆ protein by Ni²⁺-affinity chromatography.

[9] = isoleucine 500 μg/ml, with or without pyridoxine
[10] = strain BB2279, up to 1 mM pyridoxal

Molecule: CC[C@H](C)[C@H](N)C(=O)O [isoleucine]
- Effect on growth of the pdxS mutant [1, 9]: No effect
- Effect on growth of the pdxT mutant [2, 9]: No effect

Molecule: G. stearothermophilus PdxS containing a His6-tag at its C-terminus
- glutaminase activity [3]: It was found that the G. stearothermophilus PdxST complex has glutaminase activity

Molecule: Cc1ncc(CO)c(CN)c1O [Pyridoxamine]
- Effectiveness for growth of the mutant compared with pyridoxal ([1]; strain BB2253): several-fold less effective

Molecule: Cc1ncc(CO)c(CO)c1O [pyridoxine]
- Restoration of growth of strain BB2253 ([1]; 200 μM pyridoxine): only partially restored
- Remediation of growth defect of B. circulans pdxT mutant [4]: not remediated
- Restoration of growth of strain BL1 ([5]; 100 μM pyridoxine): not at all
- Viability of double mutant pdxS pdxZ (BB2267) ([6]; 200 μM pyridoxine): non-viable

Molecule: Cc1ncc(CO)c(C=O)c1O [pyridoxal]
- β-Galactosidase activity (pdxS-lacZ fusion; BB2279 wild-type): 190.4 Miller units
- β-Galactosidase activity (pdxS-lacZ fusion; BB2290 pdxT): 142.4 Miller units
- Effect of PL on the 2-3-fold decrease in pdxS-lacZ expression in pdxT mutant cells (pdxS-lacZ fusion; TSS-glucose medium, limiting ammonium salts): prevented
- Effect of excess pyridoxal on pdxS-lacZ expression (pdxS-lacZ fusion; [10]): No effect
- Growth of B. subtilis ΔpdxS ([1]; FIG. 3A, 0.01 μM pyridoxal): no growth observed
- Minimal concentration of pyridoxal supporting growth of B. subtilis ΔpdxS ([1]; FIG. 3A, growth rate a function of PL concentration up to 10 μM): 0.03 µM
- Growth defects of strain BB2253 in rich media on addition of pyridoxal ([1]; LB-broth, brain heart infusion medium or DS medium): relieved
- Restoration of growth of strain BB2253 ([1]; minimal media, 1 μM pyridoxal): fully restored
- Growth rate ([2]; BB2290 pdxT, NH4Cl 10 mM, PL 100 μM, glucose-minimal medium): 60 min
- Growth rate of strain BB2256 in the presence of PL ([2]; minimal and rich media): restored to that of the wild type cell
- Growth rate ([7]; BB2279 wild-type, NH4Cl 10 mM, PL 100 μM, glucose-minimal medium): 60 min
- Effect of excess pyridoxal on growth rate [7, 10]: No effect
- Restoration of growth of strain BL1 ([5]; 1 μM pyridoxal): fully restored
- Growth and viability of double mutant pdxS pdxZ ([6]; 1 mM pyridoxal): Growth and viability
- Pyridoxal concentration needed by the double mutant relative to that required for full growth of the pdxS mutant ([6]; 1 mM versus 1 μM): 1000 fold
- Viability of double mutant pdxS pdxZ (BB2267) ([6]; 1 μM pyridoxal): non-viable

Molecule: Cc1ncc(COP(=O)(O)O)c(C=O)c1O [PLP, Pyridoxal 5′-phosphate]
- Growth of strain BB2253 in the presence of PLP [1]: Poor growth

B1: His6-tagged version of B. subtilis PdxT (enzyme, Bacillus subtilis)
chain: MLTIGVLGLQGAVREHIHAIEACGAAGLVVKRPEQLNEVDGLILPGGESTTMRRLIDTYQFMEPLREFAAQGKPMFGTCAGLIILAKEIAGSDNPHLGLLNVVVERNSFGRQVDSFEADLTIKGLDEPFTGVFIRAPHILEAGENVEVLSEHNGRIVAAKQGQFLGCSFHPELTEDHRVTQLFVEMVEEYKQKALVHHHHHH
notes: Overproduced in E. coli from pBB1252 (with PdxS) or pBB1256 (alone) and purified on a Ni2+ column; also called PdxT-His6; PdxT-H6
- binding result [8]: binds
